Results on 46 compounds are retold here after US4539322A, “Dihydropyridine derivatives and their use in treating heart conditions and hypertension” (Pfizer Inc., priority 1982, dated 1985).

SMILES strings stand for the structures. Structures can show the parent of a compound that is named as a salt.

The assay relates to rat aorta. In words: Inhibition of calcium-induced contraction of isolated rat aorta strips (reduction of response to added calcium chloride in K+-containing saline). The assay is classed as cell-based. The settings on record: 0.75 h; spirally cut rat aorta strips, 45 millimolar potassium, calcium 2 millimolar, test repeated with compound after 45 minutes; read-out: molar concentration of the compounds required to reduce the response by 50% (IC50). The method, then:
The ability of the compounds to inhibit the movement of calcium into the cell is shown by their effectiveness in reducing the response of isolated heart tissue to an increase in calcium ion concentration in vitro. The test is performed by mounting spirally cut strips of rat aorta with one end fixed and the other attached to a force transducer. The tissue is immersed in a bath of physiological saline solution containing potassium ion s at a concentration of 45 millimolar and no calcium. Calcium chloride is added to the bath with a pipette to give a final calcium ion concentration of 2 millimolar. The change in tension caused by the resulting contraction of the tissue is noted. The bath is drained and replaced with fresh saline solution and, after 45 minutes, the test is repeated with the particular compound under test present in the saline solution. The concentration of compound required to reduce the response by 50% is recorded.
As for `CCOC(=O)C1=C(COCCN2CCN(C(=NC#N)NC(C)C)CC2)NC(C)=C(C(=O)OC)C1c1ccccc1Cl` (stereo not shown) [Example 3], the IC50 stood at 10 nM. Consider `CCOC(=O)C1=C(COCCN2CCN(C(=S)NC)CC2)NC(C)=C(C(=O)OC)C1c1ccccc1Cl` (stereo not shown) [Example 10, 4-(2-chlorophenyl)-3-ethoxycarbonyl-5-methoxy-carbonyl-6-methyl-2-[2-(4-(N-methylthiocarbamoyl)-piperazin-1-yl)ethoxymethyl]-1,4-dihydropyridine, hydrochloride salt], for which the IC50 is 6.3 nM.

On to `CCNC(=O)N1CCN(C(C)COCC2=C(C(=O)OCC)C(c3ccccc3Cl)C(C(=O)OC)=C(C)N2)CC1` (stereo not shown) [Example 27], for which the IC50 is 21 nM.

As to `CCOC(=O)C1=C(COCC(C)N2CCN(C(=O)NC(C)C)CC2)NC(C)=C(C(=O)OC)C1c1ccccc1Cl` (stereo not shown) [Example 28], the IC50 amounted to 9.3 nM. As for `CCOC(=O)C1=C(COCCN2CCN(C(=NC)NC#N)CC2)NC(C)=C(C(=O)OC)C1c1ccccc1Cl` (stereo not shown) [Example 1, 4-(2-chlorophenyl)-2-[2-[4-(N-cyano-N'-methyl-amidino)piperazin-1-yl]ethoxymethyl]-3-ethoxycarbonyl-5-methoxy-carbonyl-6-methyl-1,4-dihydropyridine, oxalate salt], the IC50 was found to be 10 nM.

Take `CCOC(=O)C1=C(COCCN2CCN(C(=O)[C@@H]3CCC(=O)N3)CC2)NC(C)=C(C(=O)OC)C1c1ccccc1Cl` (stereo partly drawn) [Example 54, 4-(2-chlorophenyl)-3-ethoxycarbonyl-5-methoxycarbonyl-6-methyl-2-[2-(4-[l-5-oxo-pyrrolidin-2-ylcarbonyl]-piperazin-1-yl)ethoxymethyl]-1,4-dihydropyridine, hydrochloride hydrate]: the IC50 came to 3.02 nM. For `CCOC(=O)C(=O)N1CCN(CCOCC2=C(C(=O)OCC)C(c3ccccc3Cl)C(C(=O)OC)=C(C)N2)CC1` (stereo not shown) [Example 45] the value was 10 nM. In the case of `CCOC(=O)C1=C(COCCN2CCN(C(=O)NC)CC2)NC(C)=C(C(=O)OC)C1c1ccccc1C(F)(F)F` (stereo not shown) [Example 30], the IC50 was determined as 11 nM. Turning to `CCOC(=O)C1=C(COCCN2CCN(C(=O)NC)CC2)NC(C)=C(C(=O)OC)C1c1cc(Cl)cc(Cl)c1` (stereo not shown) [Example 32], the IC50 worked out at 50 nM. For the compound `CCOC(=O)C1=C(COCCN2CCN(C(=O)COC)CC2)NC(C)=C(C(=O)OC)C1c1ccccc1Cl` (stereo not shown) [Example 46], the IC50 turned out to be 6.3 nM.

On to `CCOC(=O)C1=C(COCCN2CCN(CC(=O)Nc3c(C)cccc3C)CC2)NC(C)=C(C(=O)OC)C1c1ccccc1Cl` (stereo not shown) [Example 38, 4-(2-chlorophenyl)-2-[2-[4-(N-[2,6-dimethylphenyl]carbamoylmethyl)piperazin-1-yl]ethoxymethyl]-3-ethoxycarbonyl-5-methoxycarbonyl-6-methyl-1,4-dihydropyridine], for which the IC50 came to 20.4 nM. Regarding `CCOC(=O)C1=C(COCCN2CCN(C(N)=NC#N)CC2)NC(C)=C(C(=O)OC)C1c1ccccc1Cl` (stereo not shown) [Example 5], the IC50 turned out to be 100 nM. For `CCOC(=O)C1=C(COCCN2CCN(C(N)=O)CC2)NC(C)=C(C(=O)OC)C1c1ccccc1Cl` (stereo not shown) [Example 14] the value was 3.72 nM; for `CCOC(=O)C1=C(COCCN2CCN(S(C)(=O)=O)CC2)NC(C)=C(C(=O)OC)C1c1ccccc1Cl` (stereo not shown) [Example 43], 15.8 nM; for `CCOC(=O)C1=C(COCC(C)N2CCNCC2)NC(C)=C(C(=O)OC)C1c1ccccc1Cl` (stereo not shown) [Example 57], 224 nM. As for `CCOC(=O)C1=C(COCCN2CCN(C(=O)OCC)CC2)NC(C)=C(C(=O)OC)C1c1ccccc1Cl` (stereo not shown) [Example 49], the IC50 is 10 nM. Turning to `CCOC(=O)C1=C(COCCN2CCN(C(=O)CC(C)=O)CC2)NC(C)=C(C(=O)OC)C1c1ccccc1Cl` (stereo not shown) [Example 52, 2-[2-(4-acetoacetylpiperazin-1-yl)ethoxymethyl]-4-(2-chlorophenyl)-3-ethoxycarbonyl-5-methoxycarbonyl-6-methyl-1,4-dihydropyridine, hydrochloride hydrate], the IC50 was 9.8 nM.

As to `CCOC(=O)C1=C(COCCN2CCN(C(=NC(C)=O)NC(C)=O)CC2)NC(C)=C(C(=O)OC)C1c1ccccc1Cl` (stereo not shown) [Example 66], the IC50 was 42 nM. In the case of `CCOC(=O)C1=C(COCCN2CCN(C(=N)NC(=O)NC(C)C)CC2)NC(C)=C(C(=O)OC)C1c1ccccc1Cl` (stereo not shown) [Example 64], the IC50 amounted to 14 nM. `CCOC(=O)C1=C(COCC(C)N2CCN(C(=O)NC)CC2)NC(C)=C(C(=O)OC)C1c1ccccc1Cl` (stereo not shown) [Example 26]: the IC50 was determined as 13.5 nM.

With `CCOC(=O)C1=C(COCCN2CCN(C(=O)Nc3ccc(C(=O)OCC)cc3)CC2)NC(C)=C(C(=O)OC)C1c1ccccc1Cl` (stereo not shown) [Example 20], the IC50 stood at 33.1 nM. Take `CCOC(=O)C1=C(COCCN2CCN(CC(N)=O)CC2)NC(C)=C(C(=O)OC)C1c1ccccc1Cl` (stereo not shown) [Example 40]: the IC50 was found to be 10.5 nM. For `CCOC(=O)C1=C(COCCN2CCN(C(=O)Nc3cccnc3)CC2)NC(C)=C(C(=O)OC)C1c1ccccc1Cl` (stereo not shown) [Example 24], the IC50 was 14.5 nM. For `CCOC(=O)C1=C(COCCN2CCNCC2)NC(C)=C(C(=O)OC)C1c1ccccc1Cl` (stereo not shown) [Example 55, 4-(2-chlorophenyl)-3-ethoxycarbonyl-5-methoxycarbonyl-6-methyl-2-[2-(piperazin-1-yl)ethoxymethyl]-1,4-dihydropyridine] the value was 155 nM. Regarding `CCOC(=O)C1=C(COCCN2CCN(C(N)=O)CC2)NC(C)=C(C(=O)OC)C1c1cccc(Cl)c1Cl` (stereo not shown) [Example 37], the IC50 was found to be 7.9 nM. Regarding `CCOC(=O)C1=C(COCCN2CCN(C(=O)NC)CC2)NC(C)=C(C(=O)OC)C1c1cccc2ccccc12` (stereo not shown) [Example 70B, 3-Ethoxycarbonyl-5-methoxycarbonyl-6-methyl-2-{2-[4-(N-methylcarbamoyl)piperazin-1-yl]ethoxymethyl}4-(1-naphthyl)-1,4-dihydropyridine hydrate], the IC50 was determined as 89 nM.

As to `CCOC(=O)C1=C(COCCN2CCN(C=O)CC2)NC(C)=C(C(=O)OC)C1c1ccccc1Cl` (stereo not shown) [Example 51, 4-(2-chlorophenyl)-3-ethoxycarbonyl-2-[2-(4-formylpiperazin-1-yl)ethoxymethyl]-5-methoxycarbonyl-6-methyl-1,4-dihydropyridine, bisoxalate salt], the IC50 worked out at 7.94 nM. Under `CCOC(=O)C1=C(COCCN2CCN(C(=O)NC3CC3)CC2)NC(C)=C(C(=O)OC)C1c1ccccc1Cl` (stereo not shown) [Example 18] stands 6.92 nM. As to `CCOC(=O)C1=C(COCCN2CCN(C(=O)NC)CC2)NC(C)=C(C(=O)OC)C1c1nccs1` (stereo not shown) [Example 36], the IC50 was 1000 nM. For `CCCNC(=O)N1CCN(CCOCC2=C(C(=O)OCC)C(c3ccccc3Cl)C(C(=O)OC)=C(C)N2)CC1` (stereo not shown) [Example 25] the value was 7.76 nM. As to `CCOC(=O)C1=C(COCCN2CCN(C(=O)NS(=O)(=O)c3ccc(C)cc3)CC2)NC(C)=C(C(=O)OC)C1c1ccccc1Cl` (stereo not shown) [Example 16], the IC50 was 251 nM. Take `CCOC(=O)C1=C(COCCN2CCN(CC(=O)OC)CC2)NC(C)=C(C(=O)OC)C1c1ccccc1Cl` (stereo not shown) [Example 39]: the IC50 came out at 10.5 nM. In the case of `CCOC(=O)C1=C(COCCN2CCN(C(=O)N(C)C)CC2)NC(C)=C(C(=O)OC)C1c1ccccc1Cl` (stereo not shown) [Example 41, 4-(2-chlorophenyl)-2-[2-(4-[N,N-dimethylcarbamoyl]-piperazin-1-yl)ethoxymethyl]-3-ethoxycarbonyl-5-methoxycarbonyl-6-methyl-1,4-dihydropyridine, hydrochloride salt], the IC50 stood at 12.9 nM. As for `CCOC(=O)C1=C(COCCN2CCN(C(=NC#N)N(C)C)CC2)NC(C)=C(C(=O)OC)C1c1ccccc1Cl` (stereo not shown) [Example 4], the IC50 worked out at 7 nM. Regarding `CCOC(=O)C1=C(COCCN2CCN(C(=O)Nc3ccc(F)cc3)CC2)NC(C)=C(C(=O)OC)C1c1ccccc1Cl` (stereo not shown) [Example 21], the IC50 came to 21.9 nM. Consider `CCOC(=O)C1=C(COCCN2CCN(C(=O)NC(C)C)CC2)NC(C)=C(C(=O)OC)C1c1ccccc1Cl` (stereo not shown) [Example 22], for which the IC50 amounted to 2.4 nM.

Take `CCOC(=O)C1=C(COCCN2CCN(S(N)(=O)=O)CC2)NC(C)=C(C(=O)OC)C1c1ccccc1Cl` (stereo not shown) [Example 53, 4-(2-chlorophenyl)-3-ethoxycarbonyl-5-methoxycarbonyl-6-methyl-2-[2-(4-sulphamoylpiperazin-1-yl)ethoxymethyl]-1,4-dihydropyridine, hydrochloride hydrate]: the IC50 is 41.7 nM.

Consider `CCOC(=O)C1=C(COCCN2CCN(C(=O)NC)CC2)NC(C)=C(C(=O)OC)C1c1cccc(Cl)c1` (stereo not shown) [Example 34], for which the IC50 amounted to 17.8 nM. For `CCCCNC(=O)N1CCN(CCOCC2=C(C(=O)OCC)C(c3ccccc3Cl)C(C(=O)OC)=C(C)N2)CC1` (stereo not shown) [Example 19], the IC50 was 15.8 nM. As for `CCOC(=O)C1=C(COCCN2CCN(C(=NS(=O)(=O)c3ccccc3)NC)CC2)NC(C)=C(C(=O)OC)C1c1ccccc1Cl` (stereo not shown) [Example 8], the IC50 worked out at 18.6 nM. For `CCOC(=O)C1=C(COCCN2CCN(C(=O)Nc3ccccc3)CC2)NC(C)=C(C(=O)OC)C1c1ccccc1Cl` (stereo not shown) [Example 15], the IC50 was 5.01 nM.

As for `CCOC(=O)C1=C(COCCN2CCN(C(=O)NC)CC2)NC(C)=C(C(=O)OC)C1c1cccc(Cl)c1Cl` (stereo not shown) [Example 31], the IC50 worked out at 2.5 nM. As to `CCOC(=O)C1=C(COCCN2CCN(C(=NS(C)(=O)=O)NC)CC2)NC(C)=C(C(=O)OC)C1c1ccccc1Cl` (stereo not shown) [Example 7], the IC50 was 100 nM. Regarding `CCOC(=O)C1=C(COCCN2CCN(C(=N)NC(=O)OC)CC2)NC(C)=C(C(=O)OC)C1c1ccccc1Cl` (stereo not shown) [Example 65], the IC50 came to 8.1 nM. Under `CCOC(=O)CNC(=O)N1CCN(CCOCC2=C(C(=O)OCC)C(c3ccccc3Cl)C(C(=O)OC)=C(C)N2)CC1` (stereo not shown) [Example 17] stands 97 nM; under `CCOC(=O)C1=C(COCCN2CCN(C(=O)NC3CCCCC3)CC2)NC(C)=C(C(=O)OC)C1c1ccccc1Cl` (stereo not shown) [Example 23], 8.51 nM.
